A word on the IC50: it is the concentration at which inhibition is half-maximal. Usually pIC50 stands for −log10 of the IC50, conventionally taken in molar units.

This note sets out measurements from US9944654B2, “Nargenicin compounds and uses thereof as antibacterial agents” (priority 2014, dated 2018).

The subject of test [1] is Pseudomonas aeruginosa MB5890 (CB1101, efflux-deleted). Kind of test: microbe, parasite or virus in culture. It counts as cell-based. The conditions noted are these: Pseudomonas aeruginosa, read-out: P. aeruginosa MB5890 efflux-del (MIC), MHII broth; * = some reduction of growth versus control at […].
Test [2] deals with Streptococcus pneumoniae MB6357 (CL 2883). Kind of test: Nargenicin antibacterial assay (MIC), S. pneumoniae. Format: cell-based. To be noted: Streptococcus pneumoniae, read-out: S. pneumoniae MB2883 (MIC), Isosensitest broth; * = some reduction of growth versus control at […].
The test system of test [3] is Escherichia coli MB5747 (LS 883, tolC). In words: microbe, parasite or virus in culture. To be noted: Escherichia coli, read-out: E. coli LS883 tolC (MIC), MHII broth; * = some reduction of growth versus control at […]. Format: cell-based.
Test [4] has as its target T1, E. coli DnaE (DNA polymerase III α-subunit from Escherichia coli) (Escherichia coli, UniProt P10443).
T1 construct: EcDnaE (E. coli DnaE residues 1-1160); 6xHis (N); made in house; host or cells: E. coli BL21(DE3)
Kind of test: In vitro DnaE single enzyme assay (E. coli). Format: biochemical. To be noted: read-out: E. coli DnaE IC50 (converted). A digest of the protocol: (§1)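 His-tagged E. coli DnaE (residues 1-1160, 0.8 μg/ml) or S. aureus DnaE (residues 1-1065, 0.05 μg/ml) incubated 30 min at 30° C. with activated calf thymus DNA, 0.025 mM dATP/dGTP/dCTP and 0.011 mM 3H-dTTP in Tris pH 7.5/Mg acetate. TCA-precipitated labelled DNA counted.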

Test [5] concerns Staphylococcus aureus MB6266 (MRSA COL). Kind of test: Nargenicin antibacterial assay (MIC), S. aureus. Format: cell-based. The conditions noted are these: Staphylococcus aureus, MRSA, read-out: S. aureus COL (MIC), MHII broth + 50% human serum; * = some reduction of growth versus control at […].
Test [6] concerns the target T2, S. aureus DnaE (DNA polymerase III α-subunit homolog from Staphylococcus aureus) (Staphylococcus aureus, UniProt Q5HF71).
T2 construct: SaDnaE (S. aureus DnaE residues 1-1065); 6xHis (N); made in house; host or cells: E. coli BL21-AI
T2 sequence (Q5HF71 1-1065): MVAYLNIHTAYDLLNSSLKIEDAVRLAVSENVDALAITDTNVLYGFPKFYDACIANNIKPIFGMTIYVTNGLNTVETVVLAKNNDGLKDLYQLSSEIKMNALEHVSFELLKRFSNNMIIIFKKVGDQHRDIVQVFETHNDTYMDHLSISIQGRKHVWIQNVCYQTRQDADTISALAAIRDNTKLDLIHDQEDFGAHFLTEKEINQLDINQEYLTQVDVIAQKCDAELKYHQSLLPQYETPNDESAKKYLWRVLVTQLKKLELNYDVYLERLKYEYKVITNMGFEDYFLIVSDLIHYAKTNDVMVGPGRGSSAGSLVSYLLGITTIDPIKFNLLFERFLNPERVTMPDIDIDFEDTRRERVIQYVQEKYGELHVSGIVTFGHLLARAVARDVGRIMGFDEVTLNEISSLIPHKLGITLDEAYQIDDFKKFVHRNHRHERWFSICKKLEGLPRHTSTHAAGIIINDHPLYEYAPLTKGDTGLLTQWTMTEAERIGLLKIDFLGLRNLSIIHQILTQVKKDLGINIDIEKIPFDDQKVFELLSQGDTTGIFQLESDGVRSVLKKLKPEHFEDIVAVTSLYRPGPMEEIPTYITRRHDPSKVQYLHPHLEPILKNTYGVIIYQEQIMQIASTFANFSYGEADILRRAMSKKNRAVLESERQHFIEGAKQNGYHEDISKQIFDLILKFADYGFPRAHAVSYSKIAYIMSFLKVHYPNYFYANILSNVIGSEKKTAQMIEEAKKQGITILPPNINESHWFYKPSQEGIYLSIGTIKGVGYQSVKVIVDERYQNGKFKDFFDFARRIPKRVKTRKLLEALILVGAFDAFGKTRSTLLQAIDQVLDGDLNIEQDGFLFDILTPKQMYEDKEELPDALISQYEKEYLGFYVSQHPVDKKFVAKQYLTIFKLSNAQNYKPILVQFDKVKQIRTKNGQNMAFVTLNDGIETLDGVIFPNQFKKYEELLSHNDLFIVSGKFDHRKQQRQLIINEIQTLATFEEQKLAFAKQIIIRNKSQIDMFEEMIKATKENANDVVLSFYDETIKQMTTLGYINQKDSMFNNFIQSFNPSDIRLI
In words: biochemical. Format: biochemical. To be noted: S. aureus DnaE IC50. A digest of the protocol: as §1

pIC50: −log10 of the molar value. Values after ≈ are worked out from the molar mass of the structure shown. A value given as a limit tells only on which side of the number the result lay.

T1 sequence (P10443 whole entry, the tested form may be a part): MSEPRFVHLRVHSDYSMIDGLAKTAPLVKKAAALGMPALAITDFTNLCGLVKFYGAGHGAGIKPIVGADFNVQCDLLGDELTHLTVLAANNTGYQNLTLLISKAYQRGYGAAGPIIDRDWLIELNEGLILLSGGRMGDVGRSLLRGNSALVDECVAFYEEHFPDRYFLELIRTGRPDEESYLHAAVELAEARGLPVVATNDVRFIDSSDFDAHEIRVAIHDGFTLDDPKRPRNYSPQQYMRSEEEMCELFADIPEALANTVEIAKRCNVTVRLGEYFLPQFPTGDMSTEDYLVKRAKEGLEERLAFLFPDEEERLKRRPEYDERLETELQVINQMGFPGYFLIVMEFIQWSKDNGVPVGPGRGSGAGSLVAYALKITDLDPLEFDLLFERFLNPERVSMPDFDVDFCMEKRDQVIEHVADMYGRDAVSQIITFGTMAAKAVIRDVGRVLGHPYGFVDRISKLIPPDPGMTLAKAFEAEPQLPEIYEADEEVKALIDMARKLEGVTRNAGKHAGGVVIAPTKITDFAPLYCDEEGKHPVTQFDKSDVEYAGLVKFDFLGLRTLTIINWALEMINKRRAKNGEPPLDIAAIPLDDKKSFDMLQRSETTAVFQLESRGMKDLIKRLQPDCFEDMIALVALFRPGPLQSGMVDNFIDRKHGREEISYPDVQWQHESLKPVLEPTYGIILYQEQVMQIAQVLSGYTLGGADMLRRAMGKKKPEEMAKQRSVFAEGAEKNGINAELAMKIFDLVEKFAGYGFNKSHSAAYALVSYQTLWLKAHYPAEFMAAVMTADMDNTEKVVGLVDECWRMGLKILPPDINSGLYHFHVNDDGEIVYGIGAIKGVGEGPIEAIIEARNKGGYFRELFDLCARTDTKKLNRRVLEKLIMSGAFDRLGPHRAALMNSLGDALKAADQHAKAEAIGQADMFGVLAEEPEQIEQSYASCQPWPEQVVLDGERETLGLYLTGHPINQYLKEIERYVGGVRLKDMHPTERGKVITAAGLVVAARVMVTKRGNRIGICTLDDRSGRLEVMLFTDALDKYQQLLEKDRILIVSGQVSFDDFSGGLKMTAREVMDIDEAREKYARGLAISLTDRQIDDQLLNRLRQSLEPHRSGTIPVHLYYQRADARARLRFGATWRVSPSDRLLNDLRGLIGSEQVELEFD

On to `CO[C@H]1C[C@H]2[C@@H](O)C[C@H]3[C@H]4O[C@]2(/C(C)=C/[C@@H](C)[C@@H]([C@@H](C)O)OC1=O)[C@@H]3[C@H](O)[C@@H](C)[C@H]4OC(=O)c1ccc[nH]1` [Example 193], for which the MIC is more than 128 µg/mL in test [1], more than 128 µg/mL in test [2], 64 µg/mL (≈ 120 µM) in test [3] and more than 128 µg/mL in test [5]. Besides, the IC50 in test [4] is more than 187 µM. For the same molecule, the negative logarithm of the IC50 (pIC50) in test [6] was 5.73.

Regarding `CO[C@H]1C[C@H]2C[C@@H](O)[C@H]3[C@H]4O[C@]2(/C(C)=C/[C@@H](C)[C@@H]([C@@H](C)O)OC1=O)[C@@H]3[C@H](O)[C@@H](C)[C@H]4OC(=O)c1ccc[nH]1` [Example 194], the MIC is more than 128 µg/mL in test [1], more than 128 µg/mL in test [2], 128 µg/mL (≈ 240 µM) in test [3] and more than 128 µg/mL in test [5]. Further, in test [4], the IC50 was more than 187 µM. This molecule showed a pIC50 in test [6] of 5.03.

Consider `CO[C@H]1C[C@H]2C=C[C@H]3[C@H]4O[C@]2(/C(C)=C/[C@@H](C)[C@@H]([C@@H](C)O)OC1=O)[C@@H]3[C@H](O)[C@@H](C)[C@H]4OC(=O)c1cccn1C` [Example 196], for which the MIC is more than 128 µg/mL in test [1], 128 µg/mL (≈ 242 µM) in test [2], 64 µg/mL (≈ 121 µM) in test [3] and more than 128 µg/mL in test [5]. Moreover, the IC50 in test [4] was more than 189 µM. This molecule also gave a pIC50 in test [6] of 5.01.

With `CO[C@H]1C[C@H]2C=C[C@H]3[C@H]4O[C@]2(/C(C)=C/[C@@H](C)[C@@H]([C@@H](C)O)OC1=O)[C@@H]3[C@H](O)[C@@H](C)[C@H]4OC(N)=O` [Example 197], the MIC in test [1] was 2 µg/mL (≈ 4.3 µM); in test [2] it was more than 128 µg/mL; in test [3], 2 µg/mL (≈ 4.3 µM); in test [5], 128 µg/mL. The IC50 in test [4] is 81.6 µM. The pIC50 in test [6] is 7.63.

For the molecule `CO[C@H]1C[C@H]2C=CC3C4[C@H](O)[C@@H](C)[C@@H](OC(=O)c5ccc[nH]5)[C@@H]3O[C@]42/C(C)=C/[C@@H](C)[C@@H]([C@@H](C)OS(=O)(=O)O)OC1=O` [Example 198], the MIC in test [1] is 64 µg/mL (≈ 107 µM); in test [2], more than 128 µg/mL; in test [3] it was 4 µg/mL (≈ 6.72 µM); in test [5] it was 4 µg/mL. For the same molecule, in test [4], the IC50 was 20.1 µM. This molecule showed a pIC50 in test [6] of more than 8.00.

Turning to `C=C1C[C@H]2[C@H]3O[C@]4(/C(C)=C/[C@@H](C)[C@@H]([C@@H](C)O)OC(=O)[C@@H](OC)C[C@@H]14)[C@@H]2[C@H](O)[C@@H](C)[C@H]3OC(=O)c1ccc[nH]1` [Example 199], the MIC in test [1] is more than 128 µg/mL; in test [2] it was more than 128 µg/mL; in test [3], 16 µg/mL (≈ 30.2 µM); in test [5], 32 µg/mL. For the same molecule, the IC50 in test [4] is 142 µM. Besides, the pIC50 in test [6] was 7.55.

In the case of `C=C1C[C@@H]2C[C@H](OC)C(=O)O[C@H]([C@@H](C)O)[C@H](C)/C=C(\C)[C@]23O[C@H]2[C@H](OC(=O)c4ccc[nH]4)[C@H](C)[C@@H](O)[C@@H]3[C@@H]12` [Example 200], the MIC in test [1] turned out to be 64 µg/mL (≈ 121 µM); in test [2] it was 128 µg/mL (≈ 242 µM); in test [3], 2 µg/mL (≈ 3.78 µM); in test [5] it was 8 µg/mL. The IC50 in test [4] was more than 189 µM. The pIC50 in test [6] is 7.95.

Consider `CO[C@H]1CC2C=C[C@H]3[C@H]4O[C@]2(/C(C)=C/[C@@H](C)[C@@H](C(C)O)OC1=O)[C@@H]3[C@H](O)[C@@H](C)[C@H]4OC(=O)c1[nH]c(-c2ccsc2)c(-c2ccsc2)c1-c1ccsc1` (stereo partly drawn) [Example 201], for which the MIC in test [1] is more than 128 µg/mL; in test [2] it was 128 µg/mL (≈ 168 µM); in test [3], more than 128 µg/mL; in test [5], more than 128 µg/mL. Further, the IC50 in test [4] was 0.525 µM. In test [6], this molecule showed a pIC50 of 6.40.

`CO[C@H]1C[C@H]2C=C[C@@H]3[C@H]4[C@H](O)[C@@H](C)C(=O)[C@@H]3O[C@]42/C(C)=C/[C@@H](C)[C@@H]([C@@H](C)O)OC1=O` [Example 202]: the MIC in test [1] is more than 128 µg/mL; in test [2], more than 128 µg/mL; in test [3] it was 128 µg/mL (≈ 304 µM); in test [5], more than 128 µg/mL. For the same molecule, the IC50 in test [4] is more than 238 µM. This molecule showed a pIC50 in test [6] of 4.11.

In the case of `CO[C@H]1C[C@H]2C=C[C@H]3[C@H]4O[C@]2(/C(C)=C/[C@@H](C)[C@@H]([C@@H](C)O)OC1=O)[C@@H]3[C@H](O)[C@@H](C)[C@H]4OC(=O)c1cccn1C(C)=O` [Example 203], the MIC was 16 µg/mL (≈ 28.7 µM) in test [1], 128 µg/mL (≈ 230 µM) in test [2], less than 0.125 µg/mL in test [3] and less than 0.125 µg/mL in test [5]. Moreover, the IC50 in test [4] is 11.7 µM. This molecule also gave a pIC50 in test [6] of more than 7.97.

`CO[C@H]1C[C@H]2C=CC3C4[C@H](O)[C@@H](C)[C@@H](OC(=O)c5ccc[nH]5)[C@@H]3O[C@]42/C(C)=C/[C@@H](C)[C@@H]([C@@H](C)OC(=O)C(=O)OCCCN(C)C)OC1=O.O=C(O)C(F)(F)F` [Example 206]: the MIC in test [1] is 64 µg/mL; in test [2], more than 128 µg/mL; in test [3], 4 µg/mL; in test [5], 4 µg/mL. The IC50 in test [4] was 1.91 µM. The molecule also showed a pIC50 in test [6] of more than 8.12.

`CO[C@H]1C[C@H]2C=CC3C4[C@H](O)[C@@H](C)[C@@H](OC(=O)c5ccc[nH]5)[C@@H]3O[C@]42/C(C)=C/[C@@H](C)[C@@H]([C@@H](C)OC(=O)C(=O)OCc2cncn2C)OC1=O.O=C(O)C(F)(F)F` [Example 207]: the MIC in test [1] is 64 µg/mL; in test [2], more than 64 µg/mL; in test [3], 4 µg/mL; in test [5], 4 µg/mL. Besides, the IC50 in test [4] was 3.27 µM. The molecule further showed a pIC50 in test [6] of more than 8.12.

As for `CO[C@H]1C[C@H]2C=CC3C4[C@H](OC(=O)C(=O)OCCN5CCN(C)CC5)[C@@H](C)[C@@H](OC(=O)c5ccc[nH]5)[C@@H]3O[C@]42/C(C)=C/[C@@H](C)[C@@H]([C@@H](C)OC(=O)C(=O)OCCN2CCN(C)CC2)OC1=O.O=C(O)C(F)(F)F` [Example 209], the MIC is more than 128 µg/mL in test [1], more than 128 µg/mL in test [2], 4 µg/mL in test [3] and 4 µg/mL in test [5]. Also, the IC50 in test [4] is 16.6 µM. The same molecule showed a pIC50 in test [6] of more than 8.23.

In the case of `CO[C@H]1C[C@H]2C=CC3C4[C@H](O)[C@@H](C)[C@@H](OC(=O)c5ccc[nH]5)[C@@H]3O[C@]42/C(C)=C/[C@@H](C)[C@@H]([C@@H](C)OC(=O)C(=O)OCCN2CCN(C)CC2)OC1=O.O=C(O)C(F)(F)F` [Example 210], the MIC is 32 µg/mL in test [1], more than 128 µg/mL in test [2], 1 µg/mL in test [3] and 1 µg/mL in test [5]. The IC50 in test [4] is 4.95 µM. The molecule also had a pIC50 in test [6] of more than 8.14.

In the case of `CO[C@H]1C[C@H]2C=CC3C4[C@H](O)[C@@H](C)[C@@H](OC(=O)c5ccc[nH]5)[C@@H]3O[C@]42/C(C)=C/[C@@H](C)[C@@H]([C@@H](C)OC(=O)C(=O)OCc2ccccc2)OC1=O` [Example 211], the MIC in test [1] is 16 µg/mL (≈ 23.6 µM); in test [2], more than 128 µg/mL; in test [3] it was less than 0.125 µg/mL; in test [5], 0.5 µg/mL. Also, in test [4], the IC50 was 2.95 µM. Besides, in test [6], the pIC50 is more than 8.05.
